In patent US20150160197A1, “System and Method for Analyzing Samples Labeled with 5, 10, 15, 20 Tetrakis (4-Carboxyphenyl) Porphine (TCPP)” (bioAffinity Technologies, Inc., priority 2009, published 2015):
“Also recorded” adds a separate entry of the source.

Assays:
[1] = system: cells of lung sputum sample; assay: Fluorescence spectral imaging (LCTF/CCD) of TCPP-labeled lung sputum cells on slides; assay type: cell-based, human; conditions: fixed sputum cells on slide, images separated by spectral emission (530 nm vs 660 nm layers)
From the text: According to one embodiment of the present invention, a biological specimen, for example a sputum sample is processed using a thin prep protocol onto a microscope slide. […] Minimizing corrosive effects to the plasma membrane is important as the TCPP is shown to localize on the plasma membrane of the cell surface. The cells are processed to separate the cells from the mucous and cell fragments. Each prepared slide contains a monolayer of the sputum cells. After preparing the slides, the labeling reagent TCPP is dissolved in concentrations between 0.05 ug/ml-4.0 ug/ml in an aqueous alcohol containing between 50% and 90% isopropanol alcohol solution. […]
To gather our data an image capture system having a detector capable of quantifying emission of photons from a TCPP labeled cell across light spectrum from about 350 nm to about 800 nm was employed according to one embodiment of the present invention. […]
Referring now to FIG. 1 is a cell labeled or stained with TCPP according to one embodiment of the present invention. […] The autofluorescence of the cells is detected in the green channel 560 +/−30nm and the fluorescence of the TCPP labeling compound on the cell is detected in the red channel 660 +/−30 nm. […] By tuning the LCTF to different frequencies during imaging, the system permits information to be gathered and analyzed over a broad spectrum. […]

neoplastic cells = conditions: cell sample incubated 6-24 hours with 200 μg/ml TCPP; cited from earlier work

Compound: O=C(O)c1ccc(-c2c3nc(c(-c4ccc(C(=O)O)cc4)c4ccc([nH]4)c(-c4ccc(C(=O)O)cc4)c4nc(c(-c5ccc(C(=O)O)cc5)c5ccc2[nH]5)C=C4)C=C3)cc1 [TCPP, 5, 10, 15, 20 tetrakis (4-carboxyphenyl) porphine]
- location of TCPP in cell structures [1]: emitted exclusively from the plasma membrane; also recorded: adheres only to surface features and does not migrate into internal cell structures
- location of TCPP in cells after incubation (neoplastic cells): entered cells and bound to the perinuclear membrane and mitochondria of neoplastic cells
